According to patent EP0560267B1, “Isosteric antiherpes peptide derivatives” (BOEHRINGER INGELHEIM (CANADA) LTD., priority 1992, dated 1993):
Read-outs that look alike come from different tables or passages of the source.

Tests used:
[1] = biological target: T1, HSV-1 ribonucleotide reductase (Human herpesvirus 1, UniProt P08543); assay: Inhibition of Herpes Simplex Virus (HSV-1) ribonucleotide reductase; format: biochemical
T1 construct: HSV-1 ribonucleotide reductase (partially purified) was obtained from quiescent BHK-21/C13 cells infected with strain F HSV-1 virus; made in house; host or cells: quiescent BHK-21/C13 cells infected with HSV-1 strain F (virus-encoded enzyme, partially purified)
Description: Inhibition of Herpes Simplex Virus (HSV-1) Ribonucleotide Reductase
• a) Preparation of Enzyme HSV-1 ribonucleotide reductase (partially purified) was obtained from quiescent BHK-21/C13 cells infected with strain F HSV-1 virus at 10 plaque forming units/cell as described by E.A. Cohen et al., J. Gen. Virol., 66, 733 (1985). • b) Assay and Results for Exemplified Peptides By following the procedure described by P. Gaudreau et al., J. Biol, Chem., 262, 12413 (1987), the assay results listed in the following Table I were obtained. The assay result for each exemplified compound of formula 1 is expressed as the concentration of the compound producing 50% of the maximal inhibition (IC50) of enzyme activity. The number of units of the enzyme preparation used in each assay was constant, based on the specific activity of the enzyme preparation. The results are relative to the activity obtained in control experiments without the test compound and represent the mean of four assays that varied less than 10% with each other.

HSV-2 = assay: Inhibition of Herpes Simplex Virus (HSV-2) replication in cell culture; format: cell-based
Method: Inhibition of Herpes Simplex Virus (HSV-2) Replication in Cell Culture
BHK-21/C13 cells (ATCC CCL 10) are incubated for two days in 150 cm^2 T-flasks (1.5 x 10^6 cells/flask) with alpha-MEM medium (Gibco Canada Inc., Burlington, Ontario, Canada) supplemented with 8% (v/v) fetal bovine serum (FBS, Gibco Canada Inc.). The cells are trypsinized and then transferred to fresh media in a 24 well plate to give 2.5 x 10^5 cells in 750 µL of media per well. The cells are incubated at 37° for a period of 6 h to allow them to adhere to the plate. Thereafter, the cells are washed once with 500 µL of alpha-MEM supplemented with 0.5% (v/v) FBS and then incubated with 750 µL of the same media (low serum) for 3 days. After this period of serum starvation, the low serum medium is removed and the cells are incubated in 500 µL of BBMT for 2 to 3 hours. {BBMT medium is described by P. Brazeau et al., Proc. Natl. Acad. Sci. USA, 79, 7909 (1982).} Thereafter, the cells are infected with HSV-2 (multiplicity of infection = 0.02 PFU/cell) in 100 µL of BBMT medium. (Note: The HSV-2 used was strain HG-52, see Y. Langelier and G. Buttin, J. Gen. Virol., 57, 21 (1981); the virus was stored at -80°.) Following 1 h of virus adsorption at 37°, the media is removed and the cells are washed with BBMT (3 X 250 µL). The cells in each well are incubated with or without (control) appropriate concentrations of the test agent dissolved in 200 µL of BBMT medium. After 29 h of incubation at 37°, the infected cells are harvested by first freezing the plate at -80°, followed by thawing. The cells in each well are scraped off the surface of the well with the help of the melting ice fragments. After complete thawing, the cell suspensions are collected and each well is rinsed with 150 µL of BBMT medium. The viral sample (suspension plus washing) is sonicated gently for 4 min at 4°. Cell debris are removed by centrifugation (1000 times gravity for 10 minutes at 4°). The supernatant is collected and stored at -80° until determination of viral titer.
Viral titration was performed by a modification of the colorimetric assay method of M. Langlois et al., Journal of Biological Standardization, 14, 201 (1986).
More specifically, in a similar manner as described above, BHK-21/C13 cells are trypsinized and transferred to fresh media in a 96 well microtiter plate to give 20,000 cells in 100 µL of media per well. The cells in the prepared plate are incubated at 37° for 2 h. During that time, the viral sample is thawed and sonicated gently for 15 seconds, and log dilutions of the sample are prepared (1/5 sequential: 50 µL of the sample plus 200 µL of BBMT medium, sequential dilutions being done with a multichannel pipette.
On completion of the above 2 hour incubation of the BHK-21/C13 cells, the media is replaced with alpha-MEM medium supplemented with 3% (v/v) FBS. The cells are now ready to be infected with the various sample dilutions of virus. Aliquots (50 µL) of the various dilutions are transferred into the appropriate wells of the plate. The resulting infected cells are incubated for 2 days at 37°. Then 50 µL of a 0.15% (v/v) solution of neutral red dye in Hank's Balanced Salt Solution (pH 7.3, Gibco Canada Inc.) is added to each well. The prepared plate is incubated for 45 min at 37°. Medium from each well is then aspirated and the cells are washed once with 200 µL of Hank's Balanced Salt Solution. […]

[2] = Human alphaherpesvirus 2, Table IV, cell culture assay of example 11, read-out: EC50
[3] = Table I, partially purified enzyme from BHK-21/C13 cells infected with strain F HSV-1, mean of four assays
[4] = Table IV, cell culture assay of example 11, read-out: EC50
[5] = Human alphaherpesvirus 2, Table V, cell culture assay of example 11

T1 sequence (P08543 whole entry): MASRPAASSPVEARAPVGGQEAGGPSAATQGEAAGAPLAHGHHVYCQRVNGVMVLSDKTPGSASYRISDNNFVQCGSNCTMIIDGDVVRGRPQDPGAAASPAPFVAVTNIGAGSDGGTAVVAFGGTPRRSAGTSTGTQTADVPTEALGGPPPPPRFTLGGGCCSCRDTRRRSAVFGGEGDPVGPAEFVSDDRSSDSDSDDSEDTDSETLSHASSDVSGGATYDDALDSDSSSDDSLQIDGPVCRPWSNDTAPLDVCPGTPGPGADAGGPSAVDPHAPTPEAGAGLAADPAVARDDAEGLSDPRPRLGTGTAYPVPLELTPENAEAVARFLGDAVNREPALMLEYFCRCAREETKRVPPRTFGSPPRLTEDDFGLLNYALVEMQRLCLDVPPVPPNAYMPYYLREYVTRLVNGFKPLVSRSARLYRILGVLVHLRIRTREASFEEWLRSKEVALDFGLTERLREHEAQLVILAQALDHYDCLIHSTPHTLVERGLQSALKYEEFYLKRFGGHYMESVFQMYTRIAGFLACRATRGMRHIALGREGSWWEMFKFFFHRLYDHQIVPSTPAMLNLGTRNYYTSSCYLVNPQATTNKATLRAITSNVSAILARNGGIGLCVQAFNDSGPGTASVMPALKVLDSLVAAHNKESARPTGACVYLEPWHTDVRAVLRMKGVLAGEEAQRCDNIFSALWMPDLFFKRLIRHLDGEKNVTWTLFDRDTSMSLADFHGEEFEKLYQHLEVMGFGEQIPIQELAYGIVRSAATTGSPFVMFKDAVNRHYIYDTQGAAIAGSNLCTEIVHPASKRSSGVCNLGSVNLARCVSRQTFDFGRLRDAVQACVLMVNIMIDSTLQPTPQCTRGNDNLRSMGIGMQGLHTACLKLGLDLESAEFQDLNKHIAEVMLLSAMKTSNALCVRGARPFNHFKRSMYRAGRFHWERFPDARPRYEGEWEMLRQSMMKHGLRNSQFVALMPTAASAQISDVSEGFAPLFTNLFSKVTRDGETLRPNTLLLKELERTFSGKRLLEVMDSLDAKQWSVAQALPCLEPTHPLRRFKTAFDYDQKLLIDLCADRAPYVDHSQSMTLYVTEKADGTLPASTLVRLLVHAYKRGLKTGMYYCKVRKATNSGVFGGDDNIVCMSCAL

Molecule | IC50 ([1]; Table IV, assay of example 10) [µM] | EC50 (HSV-2; [2]) [µM] | other results
CCCC(CCC)NC(=O)NC(C(=O)CC(CC(=O)C1(C)CCCC1)C(=O)NC(C(=O)NCC(C)(C)C)C1(C(=O)O)CCCC1)C(C)(C)C [Pr2CHNHC(O)-Tbg-CH2-(R)-CH{CH2-C(O)-(1-methylcyclopentyL)}C(O)-Asp(cyPn)-NHCH2CMe3] |  |  | IC50 ([1]; Table V, assay of example 10): 0.24 µM; EC50 (HSV-2; Human alphaherpesvirus 2): 35 µM
CCCC(CCC)NC(=O)NC(C(=O)CC(CC(=O)C(C)(C)C)C(=O)NC(C(=O)NCC(C)(CC)CC)C1(C(=O)O)CCCC1)C(C)(C)C [Pr2CHNHC(O) / NHCH2CEt2Me, Pr2CHNHC(O)-Tbg-CH2-(R)-CH(CH2C(O)CMe3)C(O)-Asp(cyPn)-NHCH2CEt2Me] | 0.34 | 18 | 
CCC(CC)NC(=O)NC(C(=O)CC(CC(=O)C(C)(C)C)C(=O)NC(C(=O)NCC(C)(C)C)C1(C(=O)O)CCCC1)C(C)(C)C [Et2CHNHC(O)-Tbg-CH2-(R)-CH(CH2C(O)-CMe3)C(O)-Asp(cyPn)-NHCH2CMe3] |  |  | IC50 [1, 3]: 0.23 µM; EC50 (HSV-2; Human alphaherpesvirus 2, BHK21 (C13), 29 h, Table II, BHK-21/C13 cells, HSV-2 strain HG-52, 0.02 PFU/cell, 29 h incubation, read-out: EC50): 56 µM
CCCC(CCC)NC(=O)NC(C(=O)CC(CC(=O)C1CCC1)C(=O)NC(C(=O)NCC(C)(C)C)C1(C(=O)O)CCCC1)C(C)(C)C [Pr2CHNHC(O)-Tbg-CH2-(R)-CH{CH2-C(O)-(cyclobutyl)}C(O)-Asp(cyPn)-NHCH2CMe3] |  |  | IC50 ([1]; Table V, assay of example 10): 0.31 µM; EC50 (HSV-2; Human alphaherpesvirus 2): 46 µM
C=CCC(CC=C)NC(=O)NC(C(=O)CC(CC(=O)C(C)(C)C)C(=O)NC(C(=O)NC(C)C(C)(C)C)C1(C(=O)O)CCCC1)C(C)(C)C [(CH2=CHCH2)2-CHNHC(O)-Tbg-CH2-(R)-CH(CH2C(O)CMe3)C(O)-Asp(cyPn)-NH-(R)-CH(Me)CMe3] | 0.32 | 48 | 
CCCC(CCC)NC(=O)NC(C(=O)CC(CC(=O)C(C)(C)C)C(=O)NC(C(=O)NNC(C)(C)C)C1(C(=O)O)CCCC1)C(C)(C)C [Pr2CHNHC(O) / NHNHCMe3, Pr2CHNHC(O)-Tbg-CH2-(R)-CH(CH2C(O)CMe3)C(O)-Asp(cyPn)-NHNHCMe3] | 0.22 | 84 | 
CCCC(CCC)NC(=O)NC(C(=O)CC(CC(=O)C(C)(C)C)C(=O)NC(C(=O)NCC(CC)(CC)CC)C1(C(=O)O)CCCC1)C(C)(C)C [Pr2CHNHC(O) / NHCH2CEt3, Pr2CHNHC(O)-Tbg-CH2-(R)-CH(CH2C(O)CMe3)C(O)-Asp(cyPn)-NHCH2CEt3] | 0.52 | 19 | 
EtPr2CHNHC(O)-Tbg-CH2-(R)-CH(CH2C(O)CMe3)C(O)-Asp(cyPn)-NHCH2CHEt2 [EtPr2CHNHC(O) / NHCH2CHEt2] | 0.41 |  | EC50 (HSV-2; [4]): 42 µM
CCCCC(CCCC)NC(=O)NC(C(=O)CC(CC(=O)C(C)(C)C)C(=O)NC(C(=O)NCC(C)(C)C)C1(C(=O)O)CCCC1)C(C)(C)C [Bu2CHNHC(O) / NHCH2CMe3, Bu2CHNHC(O)-Tbg-CH2-(R)-CH(CH2C(O)CMe3)C(O)-Asp(cyPn)-NHCH2CMe3] | 0.53 | 65 | 
CCCC(CCC)NC(=O)NC(C(=O)CC(CC(=O)C(C)(C)C)C(=O)NC(C(=O)NCC(C)(C)CC)C1(C(=O)O)CCCC1)C(C)(C)C [Pr2CHNHC(O) / NHCH2CMe2Et, Pr2CHNHC(O)-Tbg-CH2-(R)-CH(CH2C(O)CMe3)C(O)-Asp(cyPn)-NHCH2CMe2Et] | 0.24 | 16 | 
CCCC(CCC)NC(=O)NC(C(=O)CC(CC(=O)C(C)(C)C)C(=O)NC(C(=O)NC(CO)C(C)(C)C)C1(C(=O)O)CCCC1)C(C)(C)C [Pr2CHNHC(O) / NH-(S)-CH(CMe3)CH2OH, Pr2CHNHC(O)-Tbg-CH2-(R)-CH(CH2C(O)CMe3)C(O)-Asp(cyPn)-NH-(S)-CH(CMe3)CH2OH] | 0.23 | 48 | 
CCCC(CCC)NC(=O)NC(C(=O)CC(CC(=O)C(C)(C)C)C(=O)NC(C(=O)NC(C)C(C)(C)C)C1(C(=O)O)CCCC1)C(C)(C)CC [Pr2CHNHC(O)-NH-(S)-CH(CMe2Et)-C(O)-CH2-(R)-CH(CH2C(O)CMe3)C(O)-Asp-(cyPn)-NH-(R)-CH(Me)CMe3] |  |  | IC50 ([1]; Table V, assay of example 10): 0.25 µM; EC50 (HSV-2; [5]): 13 µM
CCCC(CCC)NC(=O)NC(C(=O)CC(CC(=O)C(C)C)C(=O)NC(C(=O)NCC(C)(C)C)C1(C(=O)O)CCCC1)C(C)(C)C [Pr2CHNHC(O)-Tbg-CH2-(R)-CH(CH2-C(O)CHMe2)C(O)-Asp(cyPn)-NHCH2-CMe3] |  |  | IC50 ([1]; Table V, assay of example 10): 0.36 µM; EC50 (HSV-2; [5]): 39 µM
CCC(CC)NC(=O)NC(C(=O)CC(CC(=O)C1CCCC1)C(=O)NC(C(=O)NCC(C)(C)C)C1(C(=O)O)CCCC1)C(C)(C)C [Et2CHNHC(O)-Tbg-CH2-(R)-CH{CH2C(O)-(cyclopentyl)}C(O)-Asp(cyPn)-NHCH2CMe3] |  |  | IC50 [1, 3]: 0.22 µM; EC50 (HSV-2; Human alphaherpesvirus 2, BHK21 (C13), 29 h): 50 µM
CCCC(CCC)NC(=O)NC(C(=O)CC(CC(=O)C(C)(C)C)C(=O)NC(C(=O)NC(C)C(C)(C)C)C1(C(=O)O)CCCC1)C(C)(C)C [Pr2CHNHC(O) / NH-(R)-CH(Me)CMe3, Pr2CHNHC(O)-Tbg-CH2-(R)-CH(CH2C(O)CMe3)C(O)-Asp(cyPn)-NH-(R)-CH(Me)CMe3] | 0.28 | 14 | 
CCCC(CCC)NC(=O)NC(C(=O)CC(CC(=O)C(C)(C)CC)C(=O)NC(C(=O)NCC(C)(C)C)C1(C(=O)O)CCCC1)C(C)(C)C [Pr2CHNHC(O)-Tbg-CH2-(R)-CH(CH2-C(O)CMe2Et)C(O)-Asp(cyPn)-NHCH2-CMe3] |  |  | IC50 ([1]; Table V, assay of example 10): 0.21 µM; EC50 (HSV-2; [5]): 33 µM
C=CCC(CC=C)NC(=O)NC(C(=O)CC(CC(=O)C(C)(C)C)C(=O)NC(C(=O)NCC(C)(C)C)C1(C(=O)O)CCCC1)C(C)(C)C [(CH2=CHCH2)2-CHNHC(O) / NHCH2CMe3, (CH2=CHCH2)2-CHNHC(O)-Tbg-CH2-(R)-CH(CH2C(O)CMe3)C(O)-Asp(cyPn)-NHCH2CMe3] | 0.37 | 100 | 
CCCC(CCC)NC(=O)NC(C(=O)CC(CC(=O)C(C)(C)C)C(=O)NC(C(=O)NC(C)(C)C(C)(C)C)C1(C(=O)O)CCCC1)C(C)(C)C [Pr2CHNHC(O) / NHCMe2CMe3, Pr2CHNHC(O)-Tbg-CH2-(R)-CH(CH2C(O)CMe3)C(O)-Asp(cyPn)-NHCMe2CMe3] | 0.51 | 38 | 
Me(CH2=CH-CH2)2CNHC(O)-Tbg-CH2-(R)-CH(CH2C(O)CMe3)C(O)-Asp(cyPn)-NHCH2CMe3 [Me(CH2=CHCH2)2-CNHC(O) / NHCH2CMe3] | 0.27 |  | EC50 (HSV-2; [4]): 30 µM
